Our source for the melting point values is a melting point compilation (Tetko et al.; mined from patent text by program, amines drawn as free bases though some values may be those of a salt).

In general, melting point refers to the temperature, or range, at which the solid turns liquid.

Residues, ends and D or L forms follow the SMILES beside them. *: point of attachment. Cbz = O=C(OCc1ccccc1)*; OtBu = CC(C)(C)O*; βAla = NCCC(=O)O Bounds are passed on as bounds.

`N#CC1Sc2ccccc2-c2ccccc21` (stereo not given) showed a melting point of 114 to 116 °C.
On to `O=C(c1ccc(-c2ccn(C(=O)Cc3ccc(Cl)cc3Cl)n2)cc1)N1Cc2cccn2Cc2ccccc21`, for which the melting point was 130 to 140 °C.
Under `CC(=O)c1cc(OCc2ccccc2)cc(NC(=O)C(C)(C)Br)c1O` stands 88 to 90 °C; under `COc1ccc(Cl)cc1C(=O)NCCc1ccc(-c2ccccn2)c(S(N)(=O)=O)c1`, 202 to 203 °C; under `CCOC(=O)C1CCC(CS(=O)(=O)c2ccc(Oc3ccc(OC(F)(F)F)cc3)cc2)(N(O)C=O)CC1` (stereo not given), 150 to 151 °C.
With `Cc1csc2c1c(N1CCN(C(=O)c3cccs3)CC1)c(C#N)c(=O)n2Cc1ccccc1` the figure was 223 °C; with `CCOC(=O)N(c1ccccc1)c1cc(Cl)ccc1N`, 98 to 101 °C; with `Cc1cc(C)c(CC(=O)O)cc1C`, 123 to 125 °C.
The compound `Nc1ccc2[nH]c(C(=O)N3CCC(Cc4ccccc4)CC3)cc2c1` yielded a melting point of 175 to 180 °C.
With `CSC(=S)NCc1ccc(O)cc1` the figure was 90 to 91 °C; with `COc1cc2c(cc1Nc1ncc(Cl)c(Nc3ccccc3S(=O)(=O)N(C)C)n1)CCN(CC(C)O)CC2` (stereo not given), 183 to 185 °C.
With `Cc1[nH]nc(Oc2c(Cl)cc(C(F)(F)F)cc2Cl)c1C` the figure was 220 to 223 °C; with `COc1ccc(C=CC(O)C(O)C=Cc2ccc(OC)cc2)cc1` (stereo not given), 145 to 146 °C.
With `CON(C)C(=O)Nc1ccc(CN2OCCC(C)(C)C2=O)c(Cl)c1` the figure was 116 to 118 °C.
`COC(=O)c1cc(OCc2ccc3ccccc3n2)no1` displayed a melting point of 133 to 134 °C.
With `Nc1c2c(nc3cnccc13)CCCC2=O` the figure was 237 to 242 °C.
In the case of `N#Cc1c(C#N)n(-c2ccc(Cl)cc2)c(=O)n1Cc1ccccc1`, the melting point was in the range of 192 to 194 °C.
In turn, `CCCCOC(=O)[C@H]1CN(c2ccc3c(c2)sc(=O)n3C)C(=O)O1` returned a melting point of 85 to 87 °C.
With `COC(=O)c1nc(SC)n(-c2ccccc2)c1C(=O)OC` the figure was 121 to 122 °C.
On to `COc1ccc2c(c1)c(-c1cc3c(Cl)ccnc3[nH]1)cn2C`, for which the melting point lay within 250 to 252 °C.
Under `CN(C)C(=O)c1ccc(Nc2nc(OCC3CCCCC3)c3nc[nH]c3n2)cc1` stands 184 to 186 °C; under `O=[N+]([O-])c1ccc(CN(CCO)CCO)cc1`, 74 to 75 °C; under `Cc1c(C)c(N2CCN(c3ccc(S(C)=O)cc3)CC2)c(C)c2c1OC(C)(C)C2` (stereo not given), 223 to 227 °C.
On to `O=c1[nH]c(=O)n(C2CC(O)C(CO)O2)cc1C(Cl)=CI` (stereo not given), for which the melting point lay within 109 to 111 °C.
`CC(C)C(NC(=O)C(CC(=O)OC(C)(C)C)NC(=O)CCNC(=O)OCc1ccccc1)C(=O)OC(C)(C)C` (stereo not given) ({Cbz-βAla}-Asp(OtBu)-Val-OtBu; configuration not given here) returned a melting point of 126 °C.
With `C=CCN(CC=C)CC(=O)N1c2ccccc2N(CCCC)C(=O)c2cnc(-c3ccccc3)nc21` the figure was 137 to 138 °C; with `CC(=Cc1ccsc1)N(O)C(N)=O`, 165 to 167 °C; with `O=C1CCn2c3c(c4cccc1c42)CCN(C(=O)c1ccccc1)CC3`, 178 to 181 °C.
The compound `CCOC(=O)C(C#N)=CNc1ncccc1Cl` returned a melting point of 140 to 142 °C.
Under `COc1ccc2[nH]c(C)c(-c3nc(OC)cc(OC)n3)c2c1` stands 182 to 184 °C; under `C=CCc1cc(-c2cc(CC)cc(CC=C)c2O)ccc1O`, 47 to 48 °C; under `CC(=O)N(C(C)=O)c1nc2n(n1)Cc1ccccc1-2`, 174 to 176 °C.
As to `CC(=O)Nc1cccnc1NC(=O)C(C)(C)Oc1cccc(Cl)n1`, the melting point turned out to be 185 °C.
For `Cc1cccc2c1nc1n2CC(C(C)(C)C)Oc2c(Cl)cccc2-1` (stereo not given), the melting point lay in the range of 191 to 192 °C.
With `Cc1nc(N)c2nc(CO)n(Cc3cc(-c4ccc(F)cc4)no3)c2c1C` the figure was 164 to 165 °C; with `O=[N+]([O-])C1COc2cc3c(cc2C1c1ccccc1C1OCCCO1)OCO3` (stereo not given), 207 °C.
With `COC(=O)C(C(=O)OC)c1ccc(C(=O)O)cc1[N+](=O)[O-]` the figure was 147 to 149 °C; with `COC(=O)CCc1cc2cc(C(=O)c3ccccc3)ccc2n1S(=O)(=O)c1ccccc1`, 37 to 51 °C.
As to `Cc1cn(C2CC(C#N)C(COC(c3ccccc3)(c3ccccc3)c3ccccc3)O2)c(=O)[nH]c1=O` (stereo not given), the melting point lay within 153 to 157 °C.
The compound `CCN1C(=O)C(C)(C(=O)O)Oc2ccccc21` (stereo not given) gave a melting point of 164 to 168 °C.
`CCN1CCC(=O)N(c2ccc(Cl)cc2C)C1=S` yielded a melting point of 133 to 136 °C.
Compound `Cc1oc(-c2ccccc2)nc1COc1ccc(COc2nn(Cc3ccccc3)cc2C=O)cc1` showed a melting point of 133 to 134 °C.
With `FC(F)(F)c1cccc(Oc2cc(Oc3cccc(C(F)(F)F)c3)nc(Br)n2)c1` the figure was 126 to 129 °C.
Under `CC(=O)SCCC(=O)N1c2cc(C)ccc2CCC1C(=O)O` (stereo not given) stands 119 to 122 °C; under `CNc1nc(C)c(C)cc1NC(=O)N1CCN(c2cc(C)cc(C)c2)CC1`, 160 to 162 °C.
`CCOC(=O)c1sc(-c2ccc(Cl)cc2Cl)nc1C`: the melting point worked out at 100 °C.
`CCC(=O)Oc1ccc(N=c2scc(-c3ccc(Cl)c(S(=O)(=O)N(C)C)c3)n2C)cc1`: the melting point is 155 to 159 °C.
Under `CCOC(=O)c1cnn(C)c1O` stands 134 to 135 °C.
With `COc1ccc(CCNC(=O)C2CCC2)cc1C` the figure was 103 to 104 °C.
With `O=C(O)C(=O)CC(=O)c1cn(Cc2ccncc2)c2ccccc2c1=O` the figure was over 300 °C.
The compound `Cc1c(C(C)(C)C)cc(C(C)C)c(-c2c(C(C)C)cc(C(C)(C)C)c(C)c2O)c1O` registered a melting point of 105 to 108 °C.
For `O=c1[nH]c2cc(Cl)ccc2n1C1CCN(Cc2cncc(-c3ccccc3)c2)CC1`, the melting point was 229 to 231 °C.
With `Cc1ccc(C=CC(C)N(O)C(N)=O)o1` (stereo not given) the figure was 122 to 124 °C; with `O=C1Cc2cc(CCN3CCN(c4nsc5ccccc45)CC3)ccc2N1`, 288 °C; with `CCCCOc1ccc(C(=O)N[C@@H]2COc3cccc(N4CCN(C)CC4)c3C2)cc1`, 192 to 194 °C.
With `CCOC(=O)C(Sc1nc2cc(Cl)ccc2s1)c1ccccc1` (stereo not given) the figure was 62 to 64 °C; with `Cc1oc(-c2ccco2)nc1COc1ccc(COc2nn(-c3ccccc3)cc2C=O)cn1`, 122 to 123 °C; with `Cn1cc(C(=O)NCc2ccc(Cl)cc2)c(=O)c2cc(CN3CCOCC3)cc(C#Cc3cccnc3)c21`, 195 to 197 °C.
`Cc1ccc(Nc2nc(Cl)nc(NC3CCCCCC3)n2)cc1F` showed a melting point of 149 °C.
As to `CCCCCCC(C(=O)O)c1cccc(Oc2ccccc2C)c1O` (stereo not given), the melting point lay in the range of 65 to 66 °C.
With `COc1ccc(-c2nnc(N)nc2-c2ccc(OC)cc2)cc1` the figure was 179 to 181 °C.
In turn, `CCOC(=O)C(=O)Nc1cc(NC=O)ccc1O` had a melting point of over 300 °C.
Under `CC12CCC3c4ccc(C(=O)O)cc4CCC3C1CCC2C(=O)c1ccccc1` (stereo not given) stands 210 to 215 °C.
`CCOC1=CC2=CCc3cc(C#N)ccc3[C@]2(Cc2ccccc2)CC1`: the melting point lay within 164 to 165 °C.
Under `O=C(CCC(=O)Oc1ccc(C(=O)OCc2ccccc2)cc1)Oc1ccc(C(=O)OCc2ccccc2)cc1` stands 106 to 107 °C; under `CC(=O)Oc1cc(S(=O)(=O)Oc2ccc(C(=O)c3c(Cc4ccc(Br)cc4)sc(C)c3C)cc2C2CCCC2)ccc1C(=O)O`, 113 to 114 °C; under `O=C(Nc1cc(Cl)ccc1S(=O)(=O)c1ccc(Cl)cc1)N[C@@H](Cc1ccc(NC(=O)c2c(Cl)cccc2Cl)cc1)C(=O)O`, 239 °C.
Under `Cc1cccc(C)c1NC(=O)Nc1sc2cc3c(cc2c1-c1ccccc1Cl)CCC3` stands 236 to 237 °C; under `CCOC(=O)c1cccc2c1N=C(c1ccccc1Cl)CC2=O`, 152 to 153 °C.
Under `CCOc1cc2c(Nc3cc(OC)c(Cl)cc3Cl)c(C#N)cnc2cc1OCCC1CCN(C)CC1` stands 174 to 176 °C.
In turn, `O=C1OC(=O)c2c1ccc1sc3ccccc3c21` yielded a melting point of 248 to 250 °C.
With `COC(=O)C(=C(/C)c1ccc(OC2CCCC2)c(OC)c1)/C(=C\c1ccccc1)C(N)=O` the figure was 133 to 134 °C; with `CCCCCCCCNc1c(Nc2ccc(CC(C)NC[C@H](O)COc3cccc4[nH]c5ccccc5c34)cc2)c(=O)c1=O` (stereo not given in full), 125 to 131 °C; with `Cc1ccc(C2=NC(C)(C(C)C)C(=S)N2)cc1` (stereo not given), 167 to 170 °C.
Under `COc1ccc2c(c1)CC(C(=O)NCCOc1ccc(C(=O)O)cc1)N2S(=O)(=O)c1ccc(-c2ccc(F)cc2F)cc1` (stereo not given) stands 91 °C; under `CCN(CC)CCC1CCN(C(=O)N2c3ccccc3C(=O)Nc3cccnc32)C1` (stereo not given), 137 to 138 °C.
Under `Brc1ncnn1C(c1ccccc1)(c1ccccc1)c1ccccc1` stands 239 to 241 °C; under `Cc1cccc(=O)c(NC(=O)C2=C(O)c3ccccc3S(=O)(=O)N2C)c1`, 235 to 242 °C.
On to `CCC(=O)Nc1cccc2c1C(=O)N(C1CCC(=O)NC1=O)C2=O` (stereo not given), for which the melting point was in the range of 221 to 223 °C.
With `CC(C)(C)OC(=O)NCc1cccc(Nc2ncnc3[nH]cc(C(=O)c4ccccc4)c23)c1` the figure was 210 to 212 °C; with `NCCc1ccc(N)cn1`, 42 to 45 °C; with `CCCC(=O)c1ccc(OCCN2CCN(c3cc(Cl)nnc3Cl)CC2)cc1`, 140 to 141 °C.
Take `C=CCNc1nc(N)nc2c1ncn2C1C=CC(CO)C1` (stereo not given): the melting point fell in the range of 181 to 183 °C.
`CCOC(=O)NCN1C(=O)CN=C(c2ccccc2Cl)c2cc(Cl)ccc21` registered a melting point of 147 to 149 °C.
Compound `O=C1CCCN1c1cnc2cnc(-c3ccc(O)cc3)nc2c1` returned a melting point of over 268 °C.
